The text below walks through data of patent US20250163038A1, “CBL-B MODULATORS AND USES THEREOF” (Nimbus Clio, Inc., priority 2021, published 2025).

A word on the IC50: it is the point on the concentration scale where inhibition reaches its midpoint.

Molecules are shown by their SMILES.

Assay [1] concerns the target Recombinant human Cbl-b (aa 36-427) (Homo sapiens, UniProt Q13191). The experiment in a line: Cbl-b Biochemical Assay (TR-FRET). Conditions: read-out: TR-FRET hCbl-b IC50. Background: Time-resolved FRET reads energy transfer from a long-lived donor to a nearby acceptor.
The target in assay [2] is T1, Recombinant human c-Cbl (aa 47-435) (Homo sapiens, UniProt P22681).
T1 sequence (P22681 47-435): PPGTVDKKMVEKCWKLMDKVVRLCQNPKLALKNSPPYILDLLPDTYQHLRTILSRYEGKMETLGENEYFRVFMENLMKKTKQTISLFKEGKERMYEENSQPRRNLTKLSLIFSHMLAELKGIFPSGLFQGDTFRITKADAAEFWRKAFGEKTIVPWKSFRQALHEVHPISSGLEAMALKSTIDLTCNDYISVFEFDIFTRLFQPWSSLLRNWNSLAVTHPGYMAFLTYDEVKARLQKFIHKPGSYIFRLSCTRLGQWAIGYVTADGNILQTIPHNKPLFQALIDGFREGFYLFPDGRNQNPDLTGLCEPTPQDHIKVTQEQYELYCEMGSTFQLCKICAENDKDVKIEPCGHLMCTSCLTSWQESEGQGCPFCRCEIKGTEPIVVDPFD
The experiment in a line: c-Cbl Biochemical Assay (TR-FRET). The settings on record: hc-Cbl Biochemical Assay (TR-FRET); read-out: TR-FRET hcCbl IC50.

Recombinant human Cbl-b (aa 36-427), sequence (Q13191 36-427): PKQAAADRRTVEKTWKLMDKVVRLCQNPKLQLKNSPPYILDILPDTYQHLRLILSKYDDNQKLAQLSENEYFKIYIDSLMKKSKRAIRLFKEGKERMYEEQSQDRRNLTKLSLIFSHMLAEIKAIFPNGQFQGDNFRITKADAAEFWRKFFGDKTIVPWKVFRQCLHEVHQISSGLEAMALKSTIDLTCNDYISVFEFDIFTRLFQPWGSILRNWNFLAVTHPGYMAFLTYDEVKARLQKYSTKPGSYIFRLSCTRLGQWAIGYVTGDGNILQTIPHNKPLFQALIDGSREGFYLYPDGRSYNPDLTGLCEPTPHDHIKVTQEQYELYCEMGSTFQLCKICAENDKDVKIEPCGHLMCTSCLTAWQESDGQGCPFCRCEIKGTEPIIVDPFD

As for `CCNc1cc(-c2c(-c3nncn3C)cnn2C)cc(-c2nc3cc(CN4CCC5(CC5)C4)cc(C(F)(F)F)c3[nH]2)n1` [AAM-2, 6-(6-{5-Azaspiro[2.4]heptan-5-ylmethyl}-4-(trifluoromethyl)-3H-1,3-benzodiazol-2-yl)-N-ethyl-4-[2-methyl-4-(4-methyl-1,2,4-triazol-3-yl)pyrazol-3-yl]pyridin-2-amine], the half-inhibitory concentration (IC50) in assay [1] lay in the range of 1 to 10 µM; in assay [2], 10 to 50 µM.
On the same counts, the results for `CCNc1cc(-c2ccccc2-c2nncn2C)cc(-c2nc3cc(CO)cc(C(F)(F)F)c3[nH]2)n1` [AAN-3, {2-[6-(Ethylamino)-4-[2-(4-methyl-1,2,4-triazol-3-yl)phenyl]pyridin-2-yl]-7-(trifluoromethyl)-1H-1,3-benzodiazol-5-yl}methanol] are 10 to 50 µM and 10 to 50 µM.
As to `CCNc1cc(-c2ccccc2-c2nncn2C)cc(-n2nc3c(C(F)(F)F)cccn3c2=O)n1` [AAO-4, 2-(6-(Ethylamino)-4-(2-(4-methyl-4H-1,2,4-triazol-3-yl)phenyl)pyridin-2-yl)-8-(trifluoromethyl)-[1,2,4]triazolo[4,3-a]pyridin-3(2H)-one], the IC50 in assay [1] and in assay [2] was 10 to 50 µM in each case.
In the case of `Cn1cnnc1C[C@]1(c2cccc(-c3nc4cccc(C(F)(F)F)c4o3)c2)C[C@H](C#N)C1` [AAT-14, (1r,3r)-3-((4-Methyl-4H-1,2,4-triazol-3-yl)methyl)-3-(3-(7-(trifluoromethyl)benzo[d]oxazol-2-yl)phenyl)cyclobutane-1-carbonitrile], the values for the half-inhibitory concentration (IC50) in assay [1] and in assay [2] were 1 to 10 µM and 10 to 50 µM, respectively.
Turning to `Cn1cnnc1-c1cnn(C)c1-c1cccc(-c2nc3cc(CN[C@H]4CCC[C@@H]4O)cc(C(F)(F)F)c3o2)c1` [AAU-6, (1S,2S)-2-(((2-(3-(1-Methyl-4-(4-methyl-4H-1,2,4-triazol-3-yl)-1H-pyrazol-5-yl)phenyl)-7-(trifluoromethyl)benzo[d]oxazol-5-yl)methyl)amino)cyclopentan-1-ol], the IC50 in assay [1] lay within 0.2 to 1 µM; in assay [2] it was 10 to 50 µM.
In the case of `Cn1cnnc1-c1cnn(C)c1-c1cccc(-c2nc3cc(CN[C@@H]4CCC[C@H]4O)cc(C(F)(F)F)c3o2)c1` [AAV-2, (1R,2R)-2-(((2-(3-(1-Methyl-4-(4-methyl-4H-1,2,4-triazol-3-yl)-1H-pyrazol-5-yl)phenyl)-7-(trifluoromethyl)benzo[d]oxazol-5-yl)methyl)amino)cyclopentan-1-ol], the results for the IC50 in assay [1] and in assay [2] were 1 to 10 µM and 10 to 50 µM, respectively.
For the molecule `Cn1cnnc1CC1(c2cccc(-c3nc4cccc(C(F)(F)F)c4[nH]3)c2)COC1` [ABB-2, 2-(3-(3-((4-Methyl-4H-1,2,4-triazol-3-yl)methyl)oxetan-3-yl)phenyl)-7-(trifluoromethyl)-1H-benzo[d]imidazole], the 50% inhibitory concentration (IC50) in assay [1] and in assay [2] was 10 to 50 µM in each case.
Take `Cn1cnnc1CC1(c2cccc(-c3nc4cccc(C(F)(F)F)n4n3)c2)COC1` [ABC-4, 2-(3-(3-((4-Methyl-4H-1,2,4-triazol-3-yl)methyl)oxetan-3-yl)phenyl)-5-(trifluoromethyl)-[1,2,4]triazolo[1,5-a]pyridine]: the concentration for half-maximal inhibition (IC50) in assay [1] and in assay [2] was 10 to 50 µM each time.
Consider `C[C@H](Cc1nncn1C)c1cccc(-c2nc3cccc(C(F)(F)F)c3[nH]2)c1` [ABD-9, 2-{3-[(2R)-1-(4-Methyl-1,2,4-triazol-3-yl)propan-2-yl]phenyl}-4-(trifluoromethyl)-3H-1,3-benzodiazole], for which the IC50 in assay [1] and in assay [2] was 10 to 50 µM in each case.
Turning to `Cn1cnnc1CC1(c2cccc(-c3nc4cc(C(=O)N5CCCC5)cc(C(F)(F)F)c4[nH]3)c2)COC1` [ABH-4, (2-(3-(3-((4-Methyl-4H-1,2,4-triazol-3-yl)methyl)oxetan-3-yl)phenyl)-7-(trifluoromethyl)-1H-benzo[d]imidazol-5-yl)(pyrrolidin-1-yl)methanone], the half-maximal inhibitory concentration (IC50) in assay [1] and in assay [2] was 10 to 50 µM in each case.
Consider `Cn1cnnc1CC1(c2cccc(-c3nc4cc(C(=O)N5CCC6(CC6)C5)cc(C(F)(F)F)c4[nH]3)c2)COC1` [ABJ-2, (2-(3-(3-((4-Methyl-4H-1,2,4-triazol-3-yl)methyl)oxetan-3-yl)phenyl)-7-(trifluoromethyl)-1H-benzo[d]imidazol-5-yl)(5-azaspiro[2.4]heptan-5-yl)methanone], for which the IC50 in assay [1] and in assay [2] was 10 to 50 µM in each case.
For `Cn1cnnc1CC1(c2cccc(-c3nc4cc(CN5CCCC5)cc(C(F)(F)F)c4[nH]3)c2)COC1` [ABL-1, 2-(3-(3-((4-Methyl-4H-1,2,4-triazol-3-yl)methyl)oxetan-3-yl)phenyl)-5-(pyrrolidin-1-ylmethyl)-7-(trifluoromethyl)-1H-benzo[d]imidazole], the 50% inhibitory concentration (IC50) was in the range of 0.2 to 1 µM in assay [1] and 10 to 50 µM in assay [2].
Consider `Cn1cnnc1CC1(c2cccc(-c3cc(C(F)(F)F)c[nH]c3=O)c2)COC1` [ABO-1, 3-(3-(3-((4-Methyl-4H-1,2,4-triazol-3-yl)methyl)oxetan-3-yl)phenyl)-5-(trifluoromethyl)pyridin-2(1H)-one], for which the results for the half-inhibitory concentration (IC50) in assay [1] and in assay [2] were 0.2 to 1 µM and 10 to 50 µM, respectively.
In the case of `Cn1cnnc1CC1(c2cccc(-c3nc4cc(C(=O)N5CC[C@H](O)C5)cc(C(F)(F)F)c4[nH]3)c2)COC1` [ABR-2, (S)-(3-Hydroxypyrrolidin-1-yl)(2-(3-(3-((4-methyl-4H-1,2,4-triazol-3-yl)methyl)oxetan-3-yl)phenyl)-7-(trifluoromethyl)-1H-benzo[d]imidazol-5-yl)methanone], the IC50 is less than 0.2 µM in assay [1] and 1 to 10 µM in assay [2].
Consider `Cn1cnnc1CC1(c2cccc(-c3nc4cc(C(=O)N5CC[C@@H](O)C5)cc(C(F)(F)F)c4[nH]3)c2)COC1` [ABS-2, (R)-(3-Hydroxypyrrolidin-1-yl)(2-(3-(3-((4-methyl-4H-1,2,4-triazol-3-yl)methyl)oxetan-3-yl)phenyl)-7-(trifluoromethyl)-1H-benzo[d]imidazol-5-yl)methanone], for which the IC50 in assay [1] and in assay [2] was 10 to 50 µM throughout.
With `Cn1cnnc1CC1(c2cccc(-c3nc4cccc(C(F)(F)F)c4s3)c2)COC1` [ABT-2, 2-(3-(3-((4-Methyl-4H-1,2,4-triazol-3-yl)methyl)oxetan-3-yl)phenyl)-7-(trifluoromethyl)benzo[d]thiazole], the half-inhibitory concentration (IC50) in assay [1] lay within 1 to 10 µM; in assay [2] it was 10 to 50 µM.
Regarding `Cn1cnnc1-c1ccccc1-c1cccc(-c2nc3cccc(C(F)(F)F)n3n2)c1` [ABU-2, 2-(2′-(4-Methyl-4H-1,2,4-triazol-3-yl)-[1,1′-biphenyl]-3-yl)-5-(trifluoromethyl)-[1,2,4]triazolo[1,5-a]pyridine], the IC50 in assay [1] and in assay [2] was 10 to 50 µM throughout.
Consider `Cn1cnnc1-c1ccccc1-c1cccc(-c2cc(C(F)(F)F)c[nH]c2=O)c1` [ABV-1, 3-(2′-(4-Methyl-4H-1,2,4-triazol-3-yl)-[1,1′-biphenyl]-3-yl)-5-(trifluoromethyl)pyridin-2(1H)-one], for which the concentration for half-maximal inhibition (IC50) in assay [1] and in assay [2] was 10 to 50 µM each time.
As for `Cn1cnnc1CC1(c2cccc(-c3cc(C4CC4)c[nH]c3=O)c2)COC1` [ABX-3, 5-Cyclopropyl-3-(3-(3-((4-methyl-4H-1,2,4-triazol-3-yl)methyl)oxetan-3-yl)phenyl)pyridin-2(1H)-one], the IC50 in assay [1] and in assay [2] was 10 to 50 µM in each case.
Turning to `C[C@H](Cc1nncn1C)c1cccc(-c2nc3cccc(C(F)(F)F)n3n2)c1` [ACA-2, (R)-2-(3-(1-(4-methyl-4H-1,2,4-triazol-3-yl)propan-2-yl)phenyl)-5-(trifluoromethyl)-[1,2,4]triazolo[1,5-a]pyridine], the IC50 in assay [1] and in assay [2] was 10 to 50 µM in each case.
With `Cn1cnnc1CC1(c2cccc(-c3nc4cc(CN5CC[C@@H](O)C5)cc(C(F)(F)F)c4[nH]3)c2)COC1` [ACB-1, (R)-1-((2-(3-(3-((4-Methyl-4H-1,2,4-triazol-3-yl)methyl)oxetan-3-yl)phenyl)-7-(trifluoromethyl)-1H-benzo[d]imidazol-5-yl)methyl)pyrrolidin-3-ol], the IC50 lay in the range of 0.2 to 1 µM in assay [1] and 10 to 50 µM in assay [2].
For the molecule `Cn1cnnc1CC1(c2cccc(-c3nc4cc(CNc5nccn5C)cc(C(F)(F)F)c4[nH]3)c2)COC1` [ACC-1, 1-Methyl-N-((2-(3-(3-((4-methyl-4H-1,2,4-triazol-3-yl)methyl)oxetan-3-yl)phenyl)-7-(trifluoromethyl)-1H-benzo[d]imidazol-5-yl)methyl)-1H-imidazol-2-amine], the IC50 lay in the range of 0.2 to 1 µM in assay [1] and 1 to 10 µM in assay [2].
On the same counts, the results for `Cn1cnnc1CC1(c2cccc(-c3cc(C(F)(F)F)cn(CCO)c3=O)c2)COC1` [ACG-3, 1-(2-Hydroxyethyl)-3-(3-(3-((4-methyl-4H-1,2,4-triazol-3-yl)methyl)oxetan-3-yl)phenyl)-5-(trifluoromethyl)pyridin-2(1H)-one] are 0.2 to 1 µM and 10 to 50 µM.
With `Cn1cnnc1CC1(c2cccc(-c3nc4cc(OCCN5CCCC5)cc(C(F)(F)F)c4[nH]3)c2)COC1` [ACJ-5, 2-(3-(3-((4-Methyl-4H-1,2,4-triazol-3-yl)methyl)oxetan-3-yl)phenyl)-5-(2-(pyrrolidin-1-yl)ethoxy)-7-(trifluoromethyl)-1H-benzo[d]imidazole], the 50% inhibitory concentration (IC50) in assay [1] and in assay [2] was 10 to 50 µM throughout.
